Results reported in patent publication US10945978B2, “Treatment and diagnosis of melanoma” (The Rockefeller University, priority 2012, dated 2021).
Structures can show the parent of a compound that is named as a salt.

How the values were obtained:
[1] = tested on: VEGF-induced endothelial recruitment; assay: In vivo matrigel plug assay; set-up: species or system mouse; conditions: VEGF 400 ng/mL + recombinant ApoE3 10 μg/mL
Protocol: 10 μg/mL recombinant human ApoE3 (4696, BioVision), 10 μg/mL BSA (A2153, Sigma Aldrich), or 400 ng/ml VEGF were mixed with matrigel (356231, BD Biosciences) as indicated. 400 μL of matrigel containing the indicated recombinant proteins were injected subcutaneously just above the ventral flank of immunocompromised NOD-SCID mice. Plugs were extracted on day 3 post-injection and fixed in 4% paraformaldehyde for 48 hours. Plugs were then paraffin-embedded and sectioned at 5-μm-thick increments. Plug cross-sectional sections were immunohistochemically stained using a primary antibody against the mouse endothelial antigen MECA-32 (Developmental Studies Hybridoma Bank, The University of Iowa, IA), detected by peroxidase-conjugated secondary antibody, and subsequently visualized by DAB oxidization. To quantify the extent of endothelial cell invasion into each matrigel plug, the number of endothelial cells was counted in 4-5 random fields for each plug, and the average number of endothelial cells per given plug area was calculated.

HUVEC's = assay: Endothelial migration and chemotaxis assays (cancer cell-free); set-up: species or system human; conditions: trans-well assay and gradient-based chemotactic assay
Protocol: Serum-starved HUVEC's were pulsed with Cell Tracker Red CMTPX dye for 45 minutes and seeded into HTS Fluoroblock trans-well inserts at a concentration of 1×10^5 HUVEC's in 0.5 mL starvation media per each insert. The assay was allowed to proceed for 16-18 hours at 37° C., and the inserts were processed and analyzed as described above (See Matrigel Invasion Assay).
HUVEC's were serum-starved in 0.2% FBS EGM-2 media for 16 hours and labeled with Cell Tracker Red CMTPX dye for 45 minutes. Meanwhile, the indicated amounts (1-5 jag) of recombinant human ApoE3 or BSA were mixed with 250 μL of matrigel (356231, BD Biosciences) and allowed to solidify at the bottom of a 24-well plate for 30 min. 250 μL of HUVEC EGM-2 media containing 0.2% FBS was then added to each matrigel-coated well, and […] HTS Fluoroblock inserts were fitted into each well. 1×10^5 HUVEC's, resuspended in 0.5 mL of starvation media, were seeded into each insert and allowed to migrate along the matrigel gradient for 16-18 hours at 37° C. Upon completion of the assay, the inserts were mounted on slides and analyzed as described above (See Matrigel Invasion Assay).

endothelial cells = assay: Endothelial recruitment by breast, renal cell and pancreatic cancer cells with ApoE; type: cell-based
MeWo cells = assay: Orthotopic metastasis assay (lung colonization after tumor excision); type: in vivo, human; conditions: oral, 100 mg/kg for 1 month post-tumor excision
Protocol: To determine the effect of GW3965 treatment on lung colonization by melanoma cells dissociated from an orthotopic site, 1×10^6 MeWo cells expressing a luciferase reporter were subcutaneously injected into both lower flanks of NOD Scid mice. Upon the formation of tumors measuring ˜300 mm^3 in volume, the tumors were excised and the mice were randomly assigned to a control diet or a GW3965-supplemented diet (100 mg/kg) treatment. One month after tumor excision, the lungs were extracted and lung colonization was measured by ex vivo bioluminescence imaging. To histologically confirm the extent of melanoma lung colonization, lungs were then fixed in 4% PFA overnight, paraffin-embedded, section into […] increments and stained for human vimentin (VP-V684, Vector Laboratories).

[2] = tested on: MeWo brain-metastatic derivatives; assay: Brain metastasis assay, intracardiac injection into athymic nude mice; type: in vivo, human; conditions: oral, GW3965 diet 100 mg/kg from day 0
Protocol: Melanoma cells used for in vivo metastasis assays were transduced with a stably expressed retroviral construct encoding a luciferase reporter gene (Ponomarev et al., 2004), allowing us to monitor the in vivo progression of melanoma cells by bioluminescence imaging. The following numbers of melanoma cells, resuspended in 100 μL of PBS, were injected intravenously via the tail-vein: 4×10^4 MeWo cells, 2.5×10^5 HT-144 cells, 2×10^5 SK-Mel-334.2 cells, 5×10^4B16F10 cells, and 1×10^5 YUMM cells. The MeWo, HT-144, and SK-Mel-334.2 cells were injected into 6-8 week-old sex-matched NOD scid mice, while the B16F10 and YUMM cells were injected into 6-8 week-old sex-matched C57BL/6 mice. In all experiments assessing at the effects of GW3965 on metastasis formation, mice were pre-treated on a control diet or a GW3965-supplemented diet (20 mg/kg) for 10 days. To assess the effect of GW3965 treatment on brain metastasis, 1×10^5 MeWo brain-metastatic derivatives were injected intracardially into athymic nude mice. Immediately following injection, mice were randomly assigned to a control diet or GW3965-supplemented diet (100 mg/kg). […]

[3] = tested on: MeWo human melanoma cells; assay: Tumor histochemistry (MECA-32, Ki-67, cleaved caspase-3) of MeWo tumors; type: in vivo; conditions: GW3965 diet 20 mg/kg, 35 days
Source text: Animals were intracardially perfused with PBS followed by 4% paraformaldehyde (PFA). Fixed lungs were embedded in paraffin and sectioned into 5-jam-thick increments. Macroscopic lung metastatic nodules were visualized by H&E staining. For analysis of tumor endothelial cell content, proliferation, and apoptosis, primary tumor paraffin-embedded sections were stained with antibodies against MECA-32 (Developmental Studies Hybridoma Bank, University of Iowa), KI-67 (ab15580, Abcam), and cleaved caspase-3 (9661, Cell Signaling), respectively.
Tumors were excised from mice and fixed in 4% paraformaldehyde at 4° C. for 48 hours. Then, tumors were paraffin-embedded and sectioned into 5-μm-thick increments. For endothelial cell content analysis in tumors, tumor sections were stained with a primary antibody against the mouse endothelial cell marker MECA-32 (Developmental Studies Hybridoma Bank, The University of Iowa, IA) and counterstained with DAPI nuclear stain. To determine tumor cell proliferation and apoptosis, tumor sections were stained with antibodies against the proliferative marker Ki-67 (Abcam, ab15580, Cambridge, Mass.) and the apoptotic marker cleaved caspase-3 (9661, Cell Signaling, Danvers, Mass.), respectively. Various Alexa Flour dye-conjugated secondary antibodies were used to detect primary antibodies. […] Endothelial cell content density and tumor proliferation rate were quantified by calculating the average percentage of MECA-32 or Ki-67 positively-staining area out of the total tumor area. Tumor apoptosis was measured by counting the number of cleaved caspase-3 expressing cells per given tumor area.

[4] = tested on: SK-Mel-334.2 primary human melanoma line; assay: Subcutaneous SK-Mel-334.2 tumor growth in immunocompromised mice; type: in vivo; conditions: oral, GW3965-supplemented diet

Row | Molecule | suppression of VEGF-induced endothelial recruitment into subcutaneous matrigel plugs [1] | endothelial migration (HUVEC's) | endothelial recruitment (endothelial cells) | inhibition of lung colonization by disseminated melanoma cells (MeWo cells) | systemic dissemination and brain colonization [2] | decrease in the number of actively proliferating tumor cells ([3]; Ki-67) | reduction in the endothelial cell content of tumors ([3]; MECA-32) | number of apoptotic cells ([3]; cleaved caspase-3) | tumor growth inhibition [4]
1 | recombinant human ApoE: recombinant human ApoE3 (4696, BioVision) | greater than 40 fold | sufficient to inhibit | inhibited |  |  |  |  |  | 
2 | O=C(O)Cc1cccc(OCCCN(Cc2cccc(C(F)(F)F)c2Cl)CC(c2ccccc2)c2ccccc2)c1 [GW3965 2, 3-[3-[N-(2-Chloro-3-trifluoromethylbenzyl)-(2,2-diphenylethyl)amino]propyloxy] phenylacetic acid hydrochloride] |  |  |  | 17 fold | inhibited | 23% | roughly 2 fold | without a change | 73%
